Read-outs that look alike come from different tables or passages of the source.

Data set [1] is described as follows: in vivo pharmacokinetic studies in mice (Example 1). More on the design: species or system mouse. As to conditions: mice; for AUC / Tmax / Cmax: po. As for the experimental part:
1.2.1 In vitro metabolic stability assessment. In vitro metabolic stability assessment was performed using mouse plasma, and liver homogenates. For the liver homogenates, washed tissues were diluted 10-fold in 0.1 M potassium phosphate buffer and homogenized using a probe sonicator. To evaluate the stability of the intact prodrug over time, each of the tissue matrix were aliquoted to 1 mL and then spiked with 10 μM of corresponding prodrugs followed by incubation in an orbital shaker at 37° C. for 1 h (in triplicate). Sample from each incubation at predetermined time points (0 min, and 1 h) was quenched with three volumes of acetonitrile containing the internal standard (IS: losartan: 0.5 μm). Samples were vortex-mixed for 30 secs and centrifuged at 10,000 RPM for 10 min at 4° C. Disappearance of the intact compound was measured using liquid chromatography tandem mass spectrometry (LC-MS/MS). 1.2.2 In vivo pharmacokinetic studies in mice. Male CD-1 mice (n=3) were used to study the pharmacokinetic profiles of representive prodrug compounds. […] Blood and brain were collected after sacrificing the mice at predetermined time points. Plasma was harvested from blood by centrifugation at 3,000 RPM for 15 min and stored at −80° C. Brain tissues were harvested following blood collection and immediately snap frozen in liquid nitrogen and stored at −80° C. until LC-MS/MS analysis. […] Brain tissues were diluted 1:5 w/v with acetonitrile containing losartan (0.5 μm) and homogenized, followed by vortex-mixing and centrifugation at 10,000 RPM for 10 min at 4° C. A 50 μL aliquot of the supernatant was diluted with 50 μL of water and transferred to 250 μL polypropylene autosampler vials sealed with teflon caps. Then, 2 μL of the sample was injected into the LC-MS/MS system for analysis.

Data set [2] in a line: in vitro stability in CES1−/− mouse brain homogenates. As to conditions: CES1−/− mouse brain homogenate, 10 μM, 37° C. The format is in vitro ADME. As for the experimental part:
(§1) All synthesized prodrugs were next screened for in vitro stability in carboxylesterase 1 knockout (CES1^−/−) mouse plasma, as well as CES1^−/− mouse brain and liver homogenates (Table 2-1). We have previously reported that CES1^−/− mouse model recapitulates human prodrug metabolism.
(§2) For the tissue homogenates, washed tissues were diluted 10-fold in 0.1 M potassium phosphate buffer and homogenized using a probe sonicator. To evaluate the stability of the intact prodrug over time, each of the crude homogenates and plasma were aliquoted to 1 mL and then spiked with a final assay concentration of 10 μM of each prodrug followed by incubation in an orbital shaker at 37° C. for 1 h (in triplicate). Sample from each incubation at predetermined time points (0 min, and 1 h) was quenched with three volumes of acetonitrile containing the internal standard (IS; losartan: 0.5 μm). Samples were vortex-mixed for 30 secs and centrifuged at 10,000×g for 10 min at 4° C. Disappearance of intact prodrugs from these samples were performed on a Dionex ultra-high-performance LC system coupled with Q Exactive Focus orbitrap mass spectrometer (Thermo Fisher Scientific Inc., Waltham MA). […] The mobile phase consisted of 0.1% formic acid in water and 0.1% formic acid in acetonitrile. Pumps were operated at a flow rate of 0.4 mL/min for 9 min using gradient elution. The mass spectrometer controlled by Xcalibur software 4.0.27.13 (Thermo Scientific) was operated with a heated electrospray ionization (HESI) ion source in positive ionization mode. Quantification of the prodrugs were performed in the full-scan mode (from m/z 50 to 1600) by comparing t=0 samples with t=60 min samples.

A short description of data set [3]: in vitro stability in CES1−/− mouse liver homogenates. As to conditions: CES1−/− mouse liver homogenate, 10 μM, 37° C. The format is in vitro ADME. How it is done:
as §1, §2

Data set [4] is described as follows: in vitro stability in CES1−/− mouse plasma. The settings on record: 10 μM. The format is in vitro ADME. How it is done:
All synthesized prodrugs were next screened for in vitro stability in carboxylesterase 1 knockout (CES1^−/−) mouse plasma, as well as CES1^−/− mouse brain and liver homogenates (Table 2-1). We have previously reported that CES1^−/− mouse model recapitulates human prodrug metabolism. Tenora et al., 2019.
Zimmermann et al., 2018. For the tissue homogenates, washed tissues were diluted 10-fold in 0.1 M potassium phosphate buffer and homogenized using a probe sonicator. To evaluate the stability of the intact prodrug over time, each of the crude homogenates and plasma were aliquoted to 1 mL and then spiked with a final assay concentration of 10 μM of each prodrug followed by incubation in an orbital shaker at 37° C. for 1 h (in triplicate). Sample from each incubation at predetermined time points (0 min, and 1 h) was quenched with three volumes of acetonitrile containing the internal standard (IS; losartan: 0.5 μm). Samples were vortex-mixed for 30 secs and centrifuged at 10,000×g for 10 min at 4° C. Disappearance of intact prodrugs from these samples were performed on a Dionex ultra-high-performance LC system coupled with Q Exactive Focus orbitrap mass spectrometer (Thermo Fisher Scientific Inc., Waltham MA). The separation of analytes was achieved using the Agilent Eclipse Plus column (100×2.1 mm i.d.; maintained at 35° C.) packed with a 1.8 μm C18 stationary phase. The mobile phase consisted of 0.1% formic acid in water and 0.1% formic acid in acetonitrile. Pumps were operated at a flow rate of 0.4 mL/min for 9 min using gradient elution. The mass spectrometer controlled by Xcalibur software 4.0.27.13 (Thermo Scientific) was operated with a heated electrospray ionization (HESI) ion source in positive ionization mode. Quantification of the prodrugs were performed in the full-scan mode (from m/z 50 to 1600) by comparing t=0 samples with t=60 min samples.

Where [5] appears, read: male, CD-1, mouse, intact prodrug, brain, 10 mg/kg eqv.
Where [6] appears, read: male, CD-1, mouse, intact prodrug, plasma, 10 mg/kg eqv.
Setting [7] is: CES1−/− (carboxylesterase 1 knockout), mouse, plasma.

Regarding `COc1cc(-c2nc(-c3ccccc3)c(-c3cccs3)[nH]2)cc(OC)c1OC(=O)c1ccc[n+](C)c1.[I-]` [Compound 6], in data set [1] (oral 10 mg/kg DPTIP equivalent), the “brain levels of DPTIP” value is reported as “approximately 150 nM”.

For `CCCCCC(=O)Oc1c(OC)cc(-c2nc(-c3ccccc3)c(-c3cccs3)[nH]2)cc1OC` [Compound P2, 2,6-Dimethoxy-4-(4-phenyl-5-(thiophen-2-yl)-1H-imidazol-2-yl)phenyl hexanoate], in data set [1] (male, CD-1, mouse, brain and plasma, oral, intact prodrug, 10 mg/kg eqv, read-out: Brain:Plasma ratio), the Kp came to 0.23. For the same molecule, the AUC (commonly concentration integrated over time) in data set [1] (setting [5]) stood at 1.66 nM·h; in data set [1] (setting [6]), 7.04 nM·h. Also, the Tmax in data set [1] (setting [5]) and in data set [1] (setting [6]) was 15 min in each case. Further, the peak concentration (Cmax) (as a rule, the peak of the concentration-time curve) in data set [1] (male, CD-1, mouse, intact prodrug, brain, 10 mg/kg eqv, read-out: Cmax) amounted to 9.8 ± 0.6 nM; in data set [1] (male, CD-1, mouse, intact prodrug, plasma, 10 mg/kg eqv, read-out: Cmax), 51.1 ± 4.6 nM.

Regarding `COc1cc(-c2nc(-c3ccccc3)c(-c3cccs3)[nH]2)cc(OC)c1OC(=O)C(C)(C)C` [Compound P4, 2,6-Dimethoxy-4-(4-phenyl-5-(thiophen-2-yl)-1H-imidazol-2-yl)phenyl pivalate], in data set [2], the “Stability in mouse (% remaining at 1h) Mean + Std Error, Brain” value was 93 ± 1%.

As to `COc1cc(-c2nc(-c3ccccc3)c(-c3cccs3)[nH]2)cc(OC)c1OC(=O)N(C)C` [Compound P5, 2,6-Dimethoxy-4-(4-phenyl-5-(thiophen-2-yl)-1H-imidazol-2-yl)phenyl dimethylcarbamate], the “Stability in mouse (% remaining at 1h) Mean + Std Error, Liver” value in data set [3] is 100 ± 1%. The “Stability in mouse (% remaining at 1h) Mean + Std Error, Brain” value in data set [2] worked out at 100 ± 2%. For the same molecule, the Cmax in data set [1] (male, CD-1, mouse, in vivo, 10 mg/kg, oral 10 mg/kg DPTIP equivalent, read-out: plasma Cmax of intact prodrug) was 4300 nM. The “improved oral absorption as intact versus DPTIP” value in data set [1] (plasma Cmax, oral 10 mg/kg DPTIP equivalent) amounted to 10 ×. Besides, the “Stability in mouse (% remaining at 1h) Mean + Std Error, Plasma” value in data set [4] (CES1−/− mouse plasma, 37° C.) stood at 96 ± 3%.

For the molecule `CCCCCN(C)C(=O)Oc1c(OC)cc(-c2nc(-c3ccccc3)c(-c3cccs3)[nH]2)cc1OC` [Compound P7, 2,6-Dimethoxy-4-(5-phenyl-4-(thiophen-2-yl)-1H-imidazol-2-yl)phenyl methyl (pentyl) carbamate], the “Stability in mouse (% remaining at 1h) Mean + Std Error, Liver” value in data set [3] is recorded as 85 ± 3%. Also, in data set [4] (CES1−/− mouse plasma, 37° C.), the “Stability in mouse (% remaining at 1h) Mean + Std Error, Plasma” value was found to be 50 ± 2%.

In the case of `CCCCCNC(=O)Oc1c(OC)cc(-c2nc(-c3ccccc3)c(-c3cccs3)[nH]2)cc1OC` [Compound P8, 2,6-Dimethoxy-4-(5-phenyl-4-(thiophen-2-yl)-1H-imidazol-2-yl)phenyl pentylcarbamate], the “Stability in mouse (% remaining at 1h) Mean + Std Error, Liver” value in data set [3] turned out to be 83 ± 2%. In data set [4] (CES1−/− mouse plasma, 37° C.), the “Stability in mouse (% remaining at 1h) Mean + Std Error, Plasma” value is reported as 60 ± 6%.

In the case of `CCCCCCCNC(=O)Oc1c(OC)cc(-c2nc(-c3ccccc3)c(-c3cccs3)[nH]2)cc1OC` [Compound P9, 2,6-Dimethoxy-4-(5-phenyl-4-(thiophen-2-yl)-1H-imidazol-2-yl)phenyl heptylcarbamate], the “Stability in mouse (% remaining at 1h) Mean + Std Error, Liver” value in data set [3] amounted to 97 ± 4%. Besides, in data set [2], the “Stability in mouse (% remaining at 1h) Mean + Std Error, Brain” value came out at 84 ± 4%. In addition, in data set [4] (CES1−/− mouse plasma, 37° C.), the “Stability in mouse (% remaining at 1h) Mean + Std Error, Plasma” value is on record as 60 ± 4%.

Consider `CCC1CCCC(CC)N1C(=O)Oc1c(OC)cc(-c2nc(-c3ccccc3)c(-c3cccs3)[nH]2)cc1OC` (centres unmarked) [Compound P10, 2,6-Dimethoxy-4-(5-phenyl-4-(thiophen-2-yl)-1H-imidazol-2-yl)phenyl 2,6-diethylpiperidine-1-carboxylate], for which, in data set [3], the “Stability in mouse (% remaining at 1h) Mean + Std Error, Liver” value is recorded as 51 ± 1%. Further, the “Stability in mouse (% remaining at 1h) Mean + Std Error, Brain” value in data set [2] is given as 90 ± 1%. For the same molecule, the “Stability in mouse (% remaining at 1h) Mean + Std Error, Plasma” value in data set [4] (setting [7]) came to 78 ± 5%.

Regarding `CCCN(CCC)C(=O)Oc1c(OC)cc(-c2nc(-c3ccccc3)c(-c3cccs3)[nH]2)cc1OC` [Compound P11, 2,6-Dimethoxy-4-(5-phenyl-4-(thiophen-2-yl)-1H-imidazol-2-yl)phenyl dipropylcarbamate], the “Stability in mouse (% remaining at 1h) Mean + Std Error, Liver” value in data set [3] amounted to 62 ± 4%. Further, the “Stability in mouse (% remaining at 1h) Mean + Std Error, Brain” value in data set [2] came to 95 ± 4%. For the same molecule, in data set [4] (CES1−/− mouse plasma, 37° C.), the “Stability in mouse (% remaining at 1h) Mean + Std Error, Plasma” value came to 99 ± 2%.

Turning to `COc1cc(-c2nc(-c3ccccc3)c(-c3cccs3)[nH]2)cc(OC)c1OC(=O)N1C2CCCC1CC2` [Compound P12, 2,6-Dimethoxy-4-(5-phenyl-4-(thiophen-2-yl)-1H-imidazol-2-yl)phenyl 8-azabicyclo[3.2.1]octane-8-carboxylate], in data set [4] (setting [7]), the “Stability in mouse (% remaining at 1h) Mean + Std Error, Plasma” value is 85 ± 9%.

On to `COc1cc(-c2nc(-c3ccccc3)c(-c3cccs3)[nH]2)cc(OC)c1OC(=O)N1C2CCC1CC(N1CCCCC1)C2` (centres unmarked) [Compound P13, 2,6-Dimethoxy-4-(5-phenyl-4-(thiophen-2-yl)-1H-imidazol-2-yl)phenyl 3-(piperidin-1-yl)-8-azabicyclo[3.2.1]octane-8-carboxylate], for which the “Stability in mouse (% remaining at 1h) Mean + Std Error, Liver” value in data set [3] is reported as 78 ± 4%. The “Stability in mouse (% remaining at 1h) Mean + Std Error, Brain” value in data set [2] was determined as 84 ± 1%. The “Stability in mouse (% remaining at 1h) Mean + Std Error, Plasma” value in data set [4] (CES1−/− mouse plasma, 37° C.) is recorded as 87 ± 2%.

`COc1cc(-c2nc(-c3ccccc3)c(-c3cccs3)[nH]2)cc(OC)c1OP(=O)(O)O` [Compound P14, 2,6-Dimethoxy-4-(4-phenyl-5-(thiophen-2-yl)-1H-imidazol-2-yl)phenyl dihydrogen phosphate]: the “Stability in mouse (% remaining at 1h) Mean + Std Error, Liver” value in data set [3] is listed as 55 ± 1%. The “Stability in mouse (% remaining at 1h) Mean + Std Error, Brain” value in data set [2] turned out to be 102 ± 2%. In data set [4] (CES1−/− mouse plasma, 37° C.), the “Stability in mouse (% remaining at 1h) Mean + Std Error, Plasma” value is reported as 91 ± 4%.

For `COc1cc(-c2nc(-c3ccccc3)c(-c3cccs3)[nH]2)cc(OC)c1OCOP(=O)(O)O` [Compound P15, (2,6-Dimethoxy-4-(4-phenyl-5-(thiophen-2-yl)-1H-imidazol-2-yl)phenoxy) methyl dihydrogen phosphate], in data set [3], the “Stability in mouse (% remaining at 1h) Mean + Std Error, Liver” value came to 21 ± 0%.

Source of the values: patent US20240287108A1, “nSMASE2 INHIBITOR PRODRUGS WITH ENHANCED ORAL AND BRAIN EXPOSURES” (The Johns Hopkins University, priority 2021, published 2024).
